This is an account of results in paper PMC11091967, “Silicon-Rhodamine Functionalized Evocalcet Probes Potently and Selectively Label Calcium Sensing Receptors In Vitro, In Vivo, and Ex Vivo” (ACS Pharmacology & Translational Science, 2024).

Structures are written as SMILES.

Series [1] is described as follows: Spectrofluorometric fluorescence in PBS and effect of pH. Type of series: physicochemical. The following applies: 750 nM in PBS, peak fluorescence at 670. Here is the method: Spectrofluorometric measurements were carried out by using the Agilent Cary Eclipse instrument. The voltage of the photomultiplier tube (PMT) was set to 600 for EvoSiR4 and EvoSiR6, and for 500 for SiR (4). Fluorescence of the probes was measured at concentrations ranging from 30 to 3000 nM in PBS containing various amounts of bovine serum albumin (BSA) (Sigma, A7906). Quenching experiments for the calculation of BSA binding were performed by adding a 1:1 molar ratio of tannic acid dissolved in ddH2O (Sigma, 403040) to the solution prior to measuring fluorescence.

The subject of series [2] is hair cells of the neuromasts within the lateral line organ. The series can be described thus: In vivo labeling of neuromasts in zebrafish larvae. Details: species or system zebrafish (Danio rerio). Particulars: 4–6 dpf larvae; for fold increase in fluorescence intensity within the neuromasts: co-labeling with DiAsp; for normalized fluorescence of the neuromasts to the background fluorescence, mean and standard deviation: neuromasts identified with DiAsp. On the procedure:
(§1) For the neuromast labeling experiments, wild-type 4–6 days post fertilization (dpf) zebrafish larvae were incubated in 200 μL of E3 medium containing different doses of the SiR probes (500–5000 nM), 2.5 μM 4-(4-diethylaminostyryl)-1-methyl-pyridinium-iodid (DiAsp, Sigma, D3418), which specifically labels hair cells in the lateral line in 0.5% DMSO for 30 min (35). Next, washing and anesthesia were achieved by placing the larvae in a 35 mm imaging dish (MolBiTec, Imaging dish 1.5) which contained 500 μL of E3 medium with 168 mg/L MS-222 (Tricaine Mehanesulfonate, Sigma) for 10 min. After removing the solution, fish were side-embedded in the imaging dish using 500 μL of 0.75% low-melting temperature agarose (Sigma, A4018). Wide-field imaging was done using the Zeiss Axio Observer fluorescence microscope (LD A-Plan 10× objective, NA = 0.25), and confocal imaging was done using a Zeiss LSM 800 confocal fluorescence microscope (LD LCI Plan-Apochromat 25× objective, NA = 0.8).

For the next series, the system named is zebrafish larvae. The series can be described thus: Zebrafish startle reflex, tolerability and brain penetration with bath-applied probe. Type of series: in vivo, zebrafish (Danio rerio). On the procedure:
as §1
For the behavioral analysis, wild-type 4–6 dpf zebrafish larvae were placed individually into custom-built sound delivery system described in a previous publication.[36] For acoustic stimulation, we used a 90 dB stimulus and recorded the subsequent behavioral responses using a high-speed camera (xiQ USB3 vision) at a frame rate of 500 fps using custom scripts written in Python. The camera was placed 30 cm above the sound delivery system. The latency of the startle reflex was quantified manually by using an LED flash (780 nm wavelength) in parallel with the time of stimulus delivery. Escape responses were quantified manually, where we considered a short-latency startle response between 2 and 16 ms and a long-latency startle response above 16 ms.

Another series concerns the target T1, human CaSR (Homo sapiens, UniProt P41180).
T1 construct: host or cells: CCL39 hamster lung fibroblasts stably transfected (HCAR), Geneticin selection
T1 sequence (P41180 20-1078): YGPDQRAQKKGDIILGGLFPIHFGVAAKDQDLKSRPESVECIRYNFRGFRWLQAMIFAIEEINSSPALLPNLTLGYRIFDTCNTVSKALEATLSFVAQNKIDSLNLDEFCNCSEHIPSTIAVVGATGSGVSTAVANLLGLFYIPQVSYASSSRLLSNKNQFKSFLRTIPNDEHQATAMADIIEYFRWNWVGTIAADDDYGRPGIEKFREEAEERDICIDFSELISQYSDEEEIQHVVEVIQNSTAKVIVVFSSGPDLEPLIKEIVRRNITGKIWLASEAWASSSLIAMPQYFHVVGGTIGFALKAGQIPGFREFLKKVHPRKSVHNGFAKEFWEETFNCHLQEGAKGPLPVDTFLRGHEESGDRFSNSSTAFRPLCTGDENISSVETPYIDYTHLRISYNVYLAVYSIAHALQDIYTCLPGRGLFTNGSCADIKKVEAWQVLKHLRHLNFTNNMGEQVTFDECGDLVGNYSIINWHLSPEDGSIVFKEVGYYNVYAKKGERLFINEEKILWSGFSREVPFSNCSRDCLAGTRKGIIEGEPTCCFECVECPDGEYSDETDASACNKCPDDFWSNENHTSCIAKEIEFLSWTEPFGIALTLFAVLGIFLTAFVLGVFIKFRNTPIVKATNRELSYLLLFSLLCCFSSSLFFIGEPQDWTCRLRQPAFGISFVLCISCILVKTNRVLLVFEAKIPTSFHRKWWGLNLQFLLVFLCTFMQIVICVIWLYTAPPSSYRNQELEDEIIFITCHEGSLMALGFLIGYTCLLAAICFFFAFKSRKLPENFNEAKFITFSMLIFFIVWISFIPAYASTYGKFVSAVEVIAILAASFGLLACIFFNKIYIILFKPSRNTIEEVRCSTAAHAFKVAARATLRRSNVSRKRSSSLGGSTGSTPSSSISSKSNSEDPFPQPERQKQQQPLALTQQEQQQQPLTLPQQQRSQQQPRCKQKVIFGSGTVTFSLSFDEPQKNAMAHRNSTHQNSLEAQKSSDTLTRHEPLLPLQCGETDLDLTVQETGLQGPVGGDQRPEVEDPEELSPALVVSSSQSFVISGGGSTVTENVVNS
The series can be described thus: FLIPR-based functional CaSR calcium assay in HCAR cells. The series is classed as cell-based. Particulars: 5 min incubation of HCAR cells, 0.1% BSA.

The next series concerns CYP2D6. Details: method as in PMID 29724589. Particulars: cited from earlier work.

By EC50 is commonly meant the concentration that produces a half-maximal response. As for `Cc1cc(C(=O)NCCCCNC(=O)Cc2ccc(N3CC[C@H](N[C@H](C)c4cccc5ccccc45)C3)cc2)ccc1C1=C2C=CC(=[N+](C)C)C=C2[Si](C)(C)c2cc(N(C)C)ccc21` [EvoSiR4], in series [1], the “decrease in fluorescence at pH above 10” value was determined as 50%. In addition, the “fold increase in fluorescence intensity within the neuromasts” value in series [2] stood at 5.7 fold. The “normalized fluorescence of the neuromasts to the background fluorescence, mean and standard deviation” value in series [2] stood at 5.71 ± 4.4. Moreover, the “effect on startle responses (percentage elicited, ratio of short-latency escapes, latency)” value in the series with zebrafish larvae (bath-applied 5 and 10 μM, acoustic stimulation) is reported as “no significant difference”. In the series on zebrafish larvae (bath-applied, Tol056 strain, confocal microscopy), the “entry into zebrafish CNS” value was “does not enter the zebrafish CNS”. Further, the “concentration beyond which lethal” value in the series on zebrafish larvae (bath-applied, larvae) is more than 20 µM. The “concentration up to which no effect on basic locomotion capabilities” value in the series with zebrafish larvae (bath-applied, larvae) is “up to 10 μM”. For the same compound, the concentration for a half-maximal effect (EC50) on human CaSR (EC50, 1× wash, 1× wash) was 380 ± 240 nM; at human CaSR (EC50, 3× wash, 3× wash), 620 ± 310 nM; at human CaSR (EC50, 5× wash, 5× wash), 330 ± 210 nM; on human CaSR (EC50, no wash, no wash), 37 ± 8 nM.
Turning to `Cc1cc(C(=O)NCCCCCCNC(=O)Cc2ccc(N3CC[C@H](N[C@H](C)c4cccc5ccccc45)C3)cc2)ccc1C1=C2C=CC(=[N+](C)C)C=C2[Si](C)(C)c2cc(N(C)C)ccc21` [EvoSiR6], in series [2], the “fold increase in fluorescence intensity within the neuromasts” value is reported as 5.6 fold; the “normalized fluorescence of the neuromasts to the background fluorescence, mean and standard deviation” value turned out to be 5.6 ± 3.1.
Take `C[C@@H](N[C@H]1CCN(c2ccc(CC(=O)O)cc2)C1)c1cccc2ccccc12` [evocalcet]: the CYP2D6 inhibition result with CYP2D6 was “no direct CYP2D6 inhibition”.
